According to US20230017597A1, “8-SUBSTITUTED STYRYL XANTHINE DERIVATIVES AND USES THEREOF” (SUNSHINE LAKE PHARMA CO., LTD., priority 2019, published 2023):

Key:
[1] = target: T1, human adenosine A2A receptor (Homo sapiens, UniProt P29274); assay: Antagonizing effect on human adenosine A2A receptor (NECA-stimulated cAMP, TR-FRET, HEK-293 cells); format: cell-based; conditions: inhibition of cAMP produced by NECA (3 nM), HEK-293 cells expressing human recombinant A2A receptor
T1 construct: expressed in transfected cells; host or cells: HEK-293
Description: The experimental system uses human recombinant adenosine A2A receptor, which is stably expressed in HEK-293 cell line. HEK-293 cells were inoculated into culture plate at a density of 1.25×10^5 cells/mL. The medium was changed by modified HBSS solution with pH 7.4, different concentrations of test compounds ([…], 1 μM, […], 10 nM, 1 nM, 0.1 nM) and solvents (PBS with 0.1% DMSO) were added, and the plate was incubated at 37° C. for 10 min. cAMP (cyclic adenosine monophosphate) concentration in culture medium was detected by TR-FRET method. NECA was used as a positive control in this experiment, (1) test compounds alone were used to stimulate cells to produce a certain amount of cAMP, and then NECA (0.1 μM) alone was used to stimulate cells to produce a certain amount of cAMP. A test compound is considered to have agonistic activity on adenosine A2A receptor if the test compound alone stimulates cells to produce cAMP more than 50% of the amount of cAMP produced by NECA (0.1 μM) alone. (2) All cells were first incubated with test compounds and then stimulated with NECA (3 nM). In addition, NECA (3 nM) alone was used to stimulate cells to produce a certain amount of cAMP. […] IC50 was calculated using MathIQ™ (ID Business Solutions Ltd., UK) through nonlinear, least squares regression equation analysis.

[2] = Pharmacokinetic evaluation in rats after intravenous or gavage administration; format: in vivo, SD rats; conditions: for AUC(0-inf) / AUC(0-t) / Cmax / MRT inf / Tmax / clearance / half-life / Vd: SD, rat, plasma; for Vd: read-out: Vss; for F: gavage 5 mg/kg vs intravenous 1 mg/kg
Description: (§1) The LC-MS/MS system for analysis includes the Agilent 1200 series vacuum degasser, a quaternary pump, an orifice plate sampler, a thermostatted column oven, and an API4000Qtrap triple quadrupole mass spectrometer with an electrospray ionization source (ESI).
(§2) Waters ACQUITY UPLC CSH C18, 2.1×50 mm, 1.7 μm column was used for analysis, and 0.8 μL of sample was injected. Analytical conditions: mobile phase was H2O+2 mM HCOONH4 (ammonium formate)+0.1% FA (formic acid) (mobile phase A) and MeOH (methanol)+2 mM HCOONH4 (ammonium formate)+0.1% FA (formic acid) (mobile phase B). Flow rate was 0.7 mL/min.
The experiment was divided into two groups: one was administered by intravenous injection, and the other was administered by intragastric administration. The compound of the present invention was administered to a test animal (overnight fast for 12 hours) in the form of 10% DMA (heating)+60% PEG400+30% saline solution. For the group of intravenous administration, the administration dose was 1 mg/kg, and vein blood samples (0.3 mL) were collected at the time points of 0.083, 0.25, 0.5, 1.0, 2.0, 5.0, 7.0 and 24 h after administration. EDTA-K2 as anticoagulant was added into the blood vessel. The plasma solutions were collected by centrifuging each blood sample at 3,000 rpm or 4,000 rpm for 10 minutes and kept at −20° C. or −70° C. For the group of intragastric administration, the administration dose was 5 mg/kg, and vein blood samples (0.3 mL) were collected at the time points of 0.25, 0.5, 1.0, 2.0, 5.0, 7.0 and 24 h after administration. EDTA-K2 as anticoagulant was added into the blood vessel. The plasma solutions were collected by centrifuging each blood sample at 3,000 rpm or 4,000 rpm for 10 minutes and kept at −20° C. or −70° C.
20 μL of plasma was taken, 120 μL of IS working solution was added to the plasma, and the plasma was vortexed for 2 min. The mixed solution was then centrifuged at 12,000 rpm for 2 min. 100 μL of the supernatant was taken, 110 μL of MeOH/H2O (v/v=1/1) was added, and the solution was vortexed for 2 minutes, then 5 μL was taken for injection into the LC-MS/MS system. LC-MS/MS method was used to detect the concentration of target compounds, and non-compartment model was used to calculate pharmacokinetic parameters.

[3] = Pharmacokinetic evaluation in beagles after intravenous or gavage administration; format: in vivo; conditions: for AUC(0-inf) / AUC(0-t) / Cmax / MRT inf / Tmax / clearance / half-life / Vd: beagle, dog, plasma; for Vd: read-out: Vss; for F: gavage 2.5 mg/kg vs intravenous 0.5 mg/kg
Description: The test animals are mice and/or dogs.
as §1
as §2, with “A waters xbridge C18 UPLC,” for “Waters ACQUITY UPLC CSH C18,”, “[…]” for “1.7 μm”, “analysis” for “analysis,”, “0.5” for “0.8”, “The flow” for “Flow”
The experiment was divided into two groups: one was administered by intravenous injection, and the other was administered by intragastric administration. The compound of the present invention was administered to test animals in the form of 10% DMA+60% PEG400+30% saline solution. […] Each blood sample was centrifuged at 3,000 rpm or 4,000 rpm for 10 minutes. The plasma solutions were collected and anticoagulant was EDTA-K2. The plasma solutions were then kept at −20° C. or −70° C. […]
10 μL of plasma was taken, 120 μL of IS working solution was added to the plasma, and the plasma was vortexed for 2 min. The mixed solution was then centrifuged at 12,000 rpm for 2 min. 80 μL of the supernatant was taken, 140 μL of MeOH/H2O (v/v=1/1) was added, and the solution was vortexed for 2 minutes, then 1.0 μL was taken for injection into the LC-MS/MS system. LC-MS/MS method was used to detect the concentration of target compounds, and non-compartment model was used to calculate pharmacokinetic parameters.

[4] = intravenous injection, 0.5 mg/kg

T1 sequence (P29274 whole entry): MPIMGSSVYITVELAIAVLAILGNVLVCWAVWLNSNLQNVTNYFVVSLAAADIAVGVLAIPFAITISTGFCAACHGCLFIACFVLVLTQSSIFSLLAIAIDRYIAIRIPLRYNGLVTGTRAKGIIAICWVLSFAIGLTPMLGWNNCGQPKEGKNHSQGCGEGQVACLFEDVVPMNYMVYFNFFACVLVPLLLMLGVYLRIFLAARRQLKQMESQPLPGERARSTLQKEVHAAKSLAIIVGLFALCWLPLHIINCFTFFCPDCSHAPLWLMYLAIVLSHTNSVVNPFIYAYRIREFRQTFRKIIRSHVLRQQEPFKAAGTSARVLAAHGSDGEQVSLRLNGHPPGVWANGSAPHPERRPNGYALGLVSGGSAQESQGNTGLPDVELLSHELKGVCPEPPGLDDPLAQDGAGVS

IC50 [1] [µM]	AUC(0-inf) ([2]; intravenous injection, 1 mg/kg) [ng·h/mL]	AUC(0-t) ([2]; intravenous injection, 1 mg/kg) [ng·h/mL]	Cmax ([2]; intravenous injection, 1 mg/kg) [ng/mL]	MRT inf ([2]; intravenous injection, 1 mg/kg) [h]	Tmax ([2]; intravenous injection, 1 mg/kg) [h]	clearance ([2]; intravenous injection, 1 mg/kg) [mL/min/kg]	half-life ([2]; intravenous injection, 1 mg/kg) [h]	Vd ([2]; intravenous injection, 1 mg/kg) [L/kg]	AUC(0-inf) ([2]; po, gavage, 5 mg/kg) [ng·h/mL]	AUC(0-t) ([2]; po, gavage, 5 mg/kg) [ng·h/mL]	Cmax ([2]; po, gavage, 5 mg/kg) [ng/mL]	MRT inf ([2]; po, gavage, 5 mg/kg) [h]	Tmax ([2]; po, gavage, 5 mg/kg) [h]	half-life ([2]; po, gavage, 5 mg/kg) [h]	F [2] [%]	AUC(0-inf) [3, 4] [ng·h/mL]	AUC(0-t) [3, 4] [ng·h/mL]	Cmax [3, 4] [ng/mL]	MRT inf [3, 4] [h]	SMILES	further results
1.48	–	–	–	–	–	–	–	–	–	–	–	–	–	–	–	–	–	–	–	CCN1CCC(Oc2ccc(/C=C/c3nc4c(c(=O)n(CC)c(=O)n4CC)n3C)cc2)CC1 [Example 3, (E)-1,3-diethyl-7-methyl-8-(4-((1-ethylpiperidin-4-yl)oxy)styryl)-1H-purine-2,6(3H,7H)-dione]	–
0.35	6290	6230	1610	4.37	0.083	2.65	3.82	0.696	40400	36900	2930	9.22	1.5	6.96	118.4	6110	5830	634	7.37	CCn1c(=O)c2c(nc(/C=C/c3ccc(OC4CCN(C(C)=O)CC4)cc3)n2C)n(CC)c1=O [Example 6, (E)-8-(4-((1-acetylpiperidin-4-yl)oxy)styryl)-1,3-diethyl-7-methyl-1H-purine-2,6 (3H,7H)-dione]	Tmax [3, 4]: 0.25 h; clearance [3, 4]: 1.36 mL/min/kg; half-life [3, 4]: 5.81 h; Vd [3, 4]: 0.604 L/kg; AUC(0-inf) ([3]; po, gavage, 2.5 mg/kg): 56500 ng·h/mL; AUC(0-t) ([3]; po, gavage, 2.5 mg/kg): 47200 ng·h/mL; Cmax ([3]; po, gavage, 2.5 mg/kg): 3320 ng/mL; MRT inf ([3]; po, gavage, 2.5 mg/kg): 12.5 h; Tmax ([3]; po, gavage, 2.5 mg/kg): 2.67 h; half-life ([3]; po, gavage, 2.5 mg/kg): 9.11 h; F [3]: 170.5%
0.75	1830	1810	817	3.1	0.083	9.1	4.64	1.69	11900	11900	2030	4.07	1.67	2.8	131.5	6310	4990	775	14.4	CCn1c(=O)c2c(nc(/C=C/c3ccc(OC4CCN(S(C)(=O)=O)CC4)cc3)n2C)n(CC)c1=O [Example 8, (E)-1,3-diethyl-7-methyl-8-(4-((1-(methylsulfonyl)piperidin-4-yl)oxy)styryl)-1H-purine-2,6(3H, 7H)-dione]	Tmax [3, 4]: 0.083 h; clearance [3, 4]: 1.32 mL/min/kg; half-life [3, 4]: 9.43 h; Vd [3, 4]: 1.14 L/kg; AUC(0-inf) ([3]; po, gavage, 2.5 mg/kg): 31800 ng·h/mL; AUC(0-t) ([3]; po, gavage, 2.5 mg/kg): 22700 ng·h/mL; Cmax ([3]; po, gavage, 2.5 mg/kg): 1720 ng/mL; MRT inf ([3]; po, gavage, 2.5 mg/kg): 18.1 h; Tmax ([3]; po, gavage, 2.5 mg/kg): 0.667 h; half-life ([3]; po, gavage, 2.5 mg/kg): 11.5 h; F [3]: 91.1%
0.55	–	–	–	–	–	–	–	–	–	–	–	–	–	–	–	–	–	–	–	CCn1c(=O)c2c(nc(/C=C/c3ccc(OC4CCNCC4)cc3)n2C)n(CC)c1=O [Example 1, (E)-1,3-diethyl-7-methyl-8-(4-(piperidin-4-yloxy)styryl)-1H-purine-2,6(3H,7H)-dione]	–
